Data as given in the NIST ThermoML archive (doi:10.1021/je0601208).

Legend:
[1] = xn = mol fraction of the nth substance listed
[2] = refractive index (Na D-line) (dimensionless); xn = mol fraction of the nth substance listed; conditions: 100.5 kPa, Liquid, Standard Abbe refractometry

CCCC(=O)OCCC(C)C [3-methylbutyl butanoate] + CCO
Conditions	refractive index, 288.15 K	refractive index, 298.15 K	refractive index, 308.15 K	refractive index, 318.15 K	surface tension liquid-gas, 288.15 K [mN/m]	surface tension liquid-gas, 298.15 K [mN/m]	surface tension liquid-gas, 308.15 K [mN/m]	surface tension liquid-gas, 318.15 K [mN/m]
[1], x1 = 0.05	–	–	–	–	23.3	22.6	21.8	20.9
[1], x1 = 0.1	–	–	–	–	23.6	22.8	22	21.1
[1], x1 = 0.15	–	–	–	–	23.8	23	22.2	21.3
[1], x1 = 0.2	–	–	–	–	24	23.1	22.4	21.5
[1], x1 = 0.25	–	–	–	–	24.1	23.3	22.5	21.6
[1], x1 = 0.3	–	–	–	–	24.3	23.4	22.6	21.7
[1], x1 = 0.35	–	–	–	–	24.4	23.5	22.7	21.8
[1], x1 = 0.4	–	–	–	–	24.5	23.6	22.8	21.9
[1], x1 = 0.45	–	–	–	–	24.6	23.7	22.9	22
[1], x1 = 0.5	–	–	–	–	24.7	23.8	23	22.1
[1], x1 = 0.55	–	–	–	–	24.8	23.9	23.1	22.2
[1], x1 = 0.6	–	–	–	–	24.9	23.9	23.2	22.3
[1], x1 = 0.65	–	–	–	–	25	24	23.3	22.4
[1], x1 = 0.7	–	–	–	–	25.1	24.1	23.4	22.5
[1], x1 = 0.75	–	–	–	–	25.2	24.2	23.5	22.6
[1], x1 = 0.8	–	–	–	–	25.3	24.3	23.6	22.7
[1], x1 = 0.85	–	–	–	–	25.4	24.4	23.7	22.8
[1], x1 = 0.9	–	–	–	–	25.5	24.5	23.8	22.9
[1], x1 = 0.95	–	–	–	–	25.6	24.6	23.9	23
[1], x1 = 1	–	–	–	–	25.7	24.7	24	23.1
[2], x1 = 0.05	1.3703	1.36624	1.36195	1.3578	–	–	–	–
[2], x1 = 0.1	1.37602	1.37182	1.36747	1.36327	–	–	–	–
[2], x1 = 0.15	1.3808	1.37656	1.37218	1.36792	–	–	–	–
[2], x1 = 0.2	1.38488	1.38059	1.3762	1.3719	–	–	–	–
[2], x1 = 0.25	1.38839	1.38406	1.37967	1.37533	–	–	–	–
[2], x1 = 0.3	1.39145	1.38709	1.38268	1.37832	–	–	–	–
[2], x1 = 0.35	1.39415	1.38977	1.38535	1.38096	–	–	–	–
[2], x1 = 0.4	1.39656	1.39216	1.38773	1.38332	–	–	–	–
[2], x1 = 0.45	1.39871	1.39431	1.38987	1.38544	–	–	–	–
[2], x1 = 0.5	1.40065	1.39624	1.3918	1.38736	–	–	–	–
[2], x1 = 0.55	1.4024	1.39798	1.39354	1.3891	–	–	–	–
[2], x1 = 0.6	1.40399	1.39956	1.39513	1.39067	–	–	–	–
[2], x1 = 0.65	1.40543	1.401	1.39656	1.3921	–	–	–	–
[2], x1 = 0.7	1.40673	1.4023	1.39786	1.3934	–	–	–	–
[2], x1 = 0.75	1.40793	1.40349	1.39905	1.39459	–	–	–	–
[2], x1 = 0.8	1.40902	1.40458	1.40015	1.39569	–	–	–	–
[2], x1 = 0.85	1.41003	1.40559	1.40116	1.3967	–	–	–	–
[2], x1 = 0.9	1.41096	1.40652	1.4021	1.39763	–	–	–	–
[2], x1 = 0.95	1.41181	1.40737	1.40296	1.39849	–	–	–	–
[2], x1 = 1	1.41259	1.40815	1.40374	1.39927	–	–	–	–

CCCCCCCC(=O)OCC [ethyl octanoate] + CCO
Conditions	refractive index, 288.15 K	refractive index, 298.15 K	refractive index, 308.15 K	refractive index, 318.15 K	surface tension liquid-gas, 288.15 K [mN/m]	surface tension liquid-gas, 298.15 K [mN/m]	surface tension liquid-gas, 308.15 K [mN/m]	surface tension liquid-gas, 318.15 K [mN/m]
[1], x1 = 0.05	–	–	–	–	23.6	22.9	22	21.1
[1], x1 = 0.1	–	–	–	–	24	23.3	22.5	21.6
[1], x1 = 0.15	–	–	–	–	24.4	23.7	22.8	21.9
[1], x1 = 0.2	–	–	–	–	24.8	24	23.2	22.3
[1], x1 = 0.25	–	–	–	–	25.1	24.3	23.4	22.6
[1], x1 = 0.3	–	–	–	–	25.3	24.5	23.7	22.8
[1], x1 = 0.35	–	–	–	–	25.5	24.8	23.9	23
[1], x1 = 0.4	–	–	–	–	25.7	24.9	24.1	23.2
[1], x1 = 0.45	–	–	–	–	25.9	25.1	24.2	23.4
[1], x1 = 0.5	–	–	–	–	26.1	25.3	24.4	23.5
[1], x1 = 0.55	–	–	–	–	26.2	25.4	24.5	23.7
[1], x1 = 0.6	–	–	–	–	26.3	25.6	24.7	23.8
[1], x1 = 0.65	–	–	–	–	26.5	25.7	24.8	24
[1], x1 = 0.7	–	–	–	–	26.6	25.8	24.9	24.1
[1], x1 = 0.75	–	–	–	–	26.7	25.9	25	24.2
[1], x1 = 0.8	–	–	–	–	26.8	26	25.1	24.3
[1], x1 = 0.85	–	–	–	–	26.9	26.1	25.2	24.4
[1], x1 = 0.9	–	–	–	–	27	26.2	25.3	24.5
[1], x1 = 0.95	–	–	–	–	27.1	26.3	25.4	24.6
[1], x1 = 1	–	–	–	–	27.2	26.4	25.5	24.7
[2], x1 = 0.05	1.37185	1.36779	1.36356	1.35953	–	–	–	–
[2], x1 = 0.1	1.37876	1.37462	1.37036	1.36625	–	–	–	–
[2], x1 = 0.15	1.38444	1.38028	1.37601	1.37184	–	–	–	–
[2], x1 = 0.2	1.38922	1.38502	1.38074	1.37654	–	–	–	–
[2], x1 = 0.25	1.39327	1.38905	1.38477	1.38054	–	–	–	–
[2], x1 = 0.3	1.39676	1.39252	1.38823	1.38398	–	–	–	–
[2], x1 = 0.35	1.39979	1.39553	1.39125	1.38698	–	–	–	–
[2], x1 = 0.4	1.40245	1.39818	1.39389	1.38961	–	–	–	–
[2], x1 = 0.45	1.40481	1.40053	1.39624	1.39195	–	–	–	–
[2], x1 = 0.5	1.40692	1.40263	1.39835	1.39403	–	–	–	–
[2], x1 = 0.55	1.40882	1.40451	1.40023	1.39591	–	–	–	–
[2], x1 = 0.6	1.41053	1.40621	1.40193	1.3976	–	–	–	–
[2], x1 = 0.65	1.41208	1.40776	1.40348	1.39914	–	–	–	–
[2], x1 = 0.7	1.4135	1.40917	1.40489	1.40054	–	–	–	–
[2], x1 = 0.75	1.4148	1.41047	1.40619	1.40183	–	–	–	–
[2], x1 = 0.8	1.41599	1.41166	1.40739	1.40302	–	–	–	–
[2], x1 = 0.85	1.41709	1.41276	1.4085	1.40412	–	–	–	–
[2], x1 = 0.9	1.4181	1.41378	1.40952	1.40515	–	–	–	–
[2], x1 = 0.95	1.41904	1.41472	1.41047	1.40611	–	–	–	–
[2], x1 = 1	1.41991	1.4156	1.41137	1.40702	–	–	–	–
